Columns and labels:
Type in all cases: functional, cell-based
KETR3 = experiment: Cytotoxicity against human KETR3 cells by MTT assay
PANC-1 = experiment: Cytotoxicity against human PANC1 cells by MTT assay
PC-3 = experiment: Cytotoxicity against human PC3M cells by MTT assay
NCI-H460 = experiment: Cytotoxicity against human H460 cells by MTT assay
HCT-8 = experiment: Cytotoxicity against human HCT8 cells by MTT assay
BGC-823 = experiment: Cytotoxicity against human BGC823 cells by MTT assay
A-431 = experiment: Cytotoxicity against human A431 cells by MTT assay
Bel-7402 = experiment: Cytotoxicity against human BEL-7402 cells by MTT assay

Structure (SMILES) | IC50 (KETR3) | IC50 (PANC-1) | IC50 (PC-3) | IC50 (NCI-H460) | IC50 (HCT-8) | IC50 (BGC-823) | IC50 (A-431) | IC50 (Bel-7402)
CO[C@]1(CC[C@H](C)CO)O[C@H]2C[C@H]3[C@@H]4CC=C5C[C@@H](O[C@H]6O[C@H](CO)[C@@H](O)[C@H](O[C@@H]7O[C@H](CO)[C@@H](O)[C@H](O)[C@H]7O)[C@H]6O[C@@H]6O[C@@H](C)[C@H](O)[C@@H](O)[C@H]6O)CC[C@]5(C)[C@H]4CC[C@]3(C)[C@H]2[C@@H]1C | 3780 nM | 380 nM | 2760 nM | 8160 nM | 1420 nM | 2520 nM | 670 nM | 950 nM
CO[C@]1(CC[C@H](C)CO)O[C@H]2C[C@H]3[C@@H]4CC=C5C[C@@H](O[C@@H]6O[C@H](CO)[C@@H](O)[C@H](O[C@@H]7O[C@H](CO)[C@@H](O)[C@H](O)[C@H]7O)[C@H]6O[C@@H]6O[C@@H](C)[C@H](O)[C@@H](O)[C@H]6O)CC[C@]5(C)[C@H]4CC[C@]3(C)[C@H]2[C@@H]1C [ICOGENIN] | 5150 nM | 270 nM | 4350 nM | > 10000 nM | 1450 nM | > 10000 nM | 3440 nM | 750 nM

Reference: ChEMBL document CHEMBL1146980, “Synthesis and antitumor activity of icogenin and its analogue” (Bioorg Med Chem Lett, 2006)
